Source: patent US5948792A, “Fluorine-containing 1,4-disubstituted piperidine derivatives” (Banyu Pharmaceutical Co., Ltd., priority 1996, dated 1999)

Columns and labels:
Muscarinic M2 receptor = molecular target: T1, Muscarinic M2 receptor (Homo sapiens, UniProt P08172); assay: Inhibition of binding of [3H]-N-methylscopolamine to muscarinic M2 receptor; details: CHO cell membranes expressing cloned human receptor; 0.2 nM [3H]-N-methylscopolamine, pH 7.4, 2 hours, 25° C; read-out: Ki M2 (inhibitory effects on binding to muscarinic M2 receptor)
T1 construct: purchased Receptor Biology, Inc; host or cells: CHO cells (membranes)
T1 sequence (P08172 1-466): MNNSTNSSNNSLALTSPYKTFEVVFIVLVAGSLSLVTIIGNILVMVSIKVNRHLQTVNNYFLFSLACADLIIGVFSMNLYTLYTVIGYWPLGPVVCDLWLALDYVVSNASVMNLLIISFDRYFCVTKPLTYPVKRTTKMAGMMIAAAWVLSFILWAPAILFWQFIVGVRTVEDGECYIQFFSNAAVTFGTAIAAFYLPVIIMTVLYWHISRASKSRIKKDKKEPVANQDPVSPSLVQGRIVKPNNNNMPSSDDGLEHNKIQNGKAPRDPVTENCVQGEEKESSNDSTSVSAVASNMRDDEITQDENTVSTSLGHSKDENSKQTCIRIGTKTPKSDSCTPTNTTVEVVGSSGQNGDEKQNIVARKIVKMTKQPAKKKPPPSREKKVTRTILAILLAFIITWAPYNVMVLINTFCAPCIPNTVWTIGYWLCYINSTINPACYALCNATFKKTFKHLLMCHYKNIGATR
Method: (§1) Tests on Inhibition of Binding to Muscarinic Receptors
(§2) These tests were performed according to a modification of the method of Hargreaves et al. (Br. J. Pharmacol. 107: 494-501, 1992). Membranes from CHO cells expressing cloned human m1-m5 (Receptor Biology, Inc.) were incubated with 0.2 nM [^3 H]-N-methylscopolamine and each a compound of the present invention to be tested in 0.5 ml of 50 mM Tris-HCl-10 mM MgCl2 -1 mM EDTA (pH 7.4) for 2 hours at 25° C. Free and membrane-bound [^3 H]-N-methylscopolamine were separated by filtration over glass filters (UniFilter-GF/C; Packard Instruments Co., Inc.) using cell harvester (Filtermate™ 196; Packard Instruments Co., Inc.). Then the filter was washed four times with 1 ml of ice-cold Tris-HCl (pH 7.4) and dried at 50° C. After adding a scintillator (Microscinti 0; Packard Instruments Co., Inc.), the radioactivity was counted by a liquid scintillation counter (TopCount™; Packard Instruments Co., Inc.). Non-specific binding was measured in the presence of 1 μM N-methylscopolamine.

Muscarinic M3 receptor = molecular target: T2, Muscarinic M3 receptor (Homo sapiens, UniProt P20309); assay: Inhibition of binding of [3H]-N-methylscopolamine to muscarinic M3 receptor
T2 construct: purchased Receptor Biology, Inc; host or cells: CHO cells (membranes)
T2 sequence (P20309 whole entry): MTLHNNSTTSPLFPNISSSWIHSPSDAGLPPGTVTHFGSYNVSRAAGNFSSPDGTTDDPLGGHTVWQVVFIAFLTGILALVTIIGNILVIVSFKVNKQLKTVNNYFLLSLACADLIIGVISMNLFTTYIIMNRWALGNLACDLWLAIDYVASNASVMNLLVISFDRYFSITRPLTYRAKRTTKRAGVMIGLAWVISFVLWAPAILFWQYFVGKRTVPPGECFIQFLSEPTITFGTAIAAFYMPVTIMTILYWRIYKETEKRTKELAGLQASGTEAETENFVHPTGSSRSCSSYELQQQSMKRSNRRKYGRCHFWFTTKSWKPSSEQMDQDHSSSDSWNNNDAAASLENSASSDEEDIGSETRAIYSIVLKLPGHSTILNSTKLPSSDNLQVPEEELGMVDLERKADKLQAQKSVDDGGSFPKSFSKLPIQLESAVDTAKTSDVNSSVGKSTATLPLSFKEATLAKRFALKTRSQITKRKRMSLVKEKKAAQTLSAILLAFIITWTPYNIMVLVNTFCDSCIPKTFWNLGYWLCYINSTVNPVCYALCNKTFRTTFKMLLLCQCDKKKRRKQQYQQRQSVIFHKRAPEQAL
Method: as §1, §2

Row | SMILES | Ki (Muscarinic M2 receptor) [nM] | Ki (Muscarinic M3 receptor; CHO cell membranes expressing cloned human receptor, 0.2 nM [3H]-N-methylscopolamine, pH 7.4, 2 hours, 25° C, read-out: Ki M3 (inhibitory effects on binding to muscarinic M3 receptor)) [nM] | M2/M3 (ratio of binding Ki) (Muscarinic M3 receptor; selectivity ratio of Ki values, binding)
1 | O=C(NC1CCN(Cc2ccsc2)CC1)[C@](O)(c1ccccc1)[C@@H]1CCC(F)(F)C1 [Example 11, (2R)-N-[1-(3-thienylmethyl)piperidin-4-yl]-2-[(1R)-3,3-difluorocyclopentyl]-2-hydroxy-2-phenylacetamide] | 460 |  | 
2 | Cl.Cl.Nc1cccc(CN2CCC(NC(=O)[C@](O)(c3ccccc3)[C@@H]3CCC(F)(F)C3)CC2)n1 [Example 20, (2R)-N-[1-(6-aminopyridin-2-ylmethyl)piperidin-4-yl]-2-[(1R)-3,3-difluorocyclopentyl]-2-hydroxy-2-phenylacetamide dihydrochloride] | 550 | 3 | 180
